# Measured values reported in patent US20210144998A1 (priority 2019, published 2021).
# Where a name gives a salt, the structure may show the parent alone. Read-outs that look alike come from different tables or passages of the source.
# Assays:
# VisNR = conditions: Microsource
smiles,measurement,setting,value
CC(=O)NC[C@H]1CN(c2ccc(N3CCOCC3)c(F)c2)C(=O)O1 [LINEZOLIDE],"activity annotation, target not given",NIHCC,LINEZOLIDE (1; inactive NIHCC)
CN1CCN(c2c(F)cc3c(=O)c(C(=O)O)cn4c3c2SCC4)CC1 [RUFLOXACIN HCl],activity annotation LdtR,LdtR; NIHCC,RUFLOXACIN HCl (2; inactive LdtR & RpoH NIHCC)
same,activity annotation RpoH,RpoH; NIHCC,RUFLOXACIN HCl (2; inactive LdtR & RpoH NIHCC)
CC[C@H]1OC(=O)[C@H](C)[C@@H](O[C@H]2C[C@@](C)(OC)[C@@H](O)[C@H](C)O2)[C@H](C)[C@@H](O[C@@H]2O[C@H](C)C[C@H](N(C)C)[C@H]2O)[C@](C)(OC)C[C@@H](C)C(=O)[C@H](C)[C@@H](O)[C@]1(C)O [CLARITHROMYCIN],activity annotation LdtR,LdtR; NIHCC,CLARITHROMYCIN (2; inactive LdtR & RpoH NIHCC)
same,activity annotation RpoH,RpoH; NIHCC,CLARITHROMYCIN (2; inactive LdtR & RpoH NIHCC)
O=C(O)CN(CCN(CC(=O)O)CC(=O)O)CCN(CC(=O)O)CC(=O)O [Diethylenetriaminepentaacetic acid],"activity annotation, target not given",LOPAC,Diethylenetriaminepentaacetic acid (1; inactive LOPAC)
CCn1cc(C(=O)O)c(=O)c2cc(F)c(N3CCN(C)CC3)cc21.CS(=O)(=O)O [PEFLOXACIN MESYLATE],"activity annotation, target not given",NIHCC,PEFLOXACIN MESYLATE (2; inactive NIHCC)
CCn1cc(C(=O)O)c(=O)c2cc(F)c(N3CCNC(C)C3)c(F)c21.Cl (stereo not shown) [Lomefloxacin hydrochloride],activity annotation VisNR,VisNR,Lomefloxacin hydrochloride (2; inactive LOPAC & VisNR Microsource)
O=c1[nH]cc(F)c(=O)[nH]1 [5-Fluorouracil],activity annotation LdtR,LdtR; LOPAC,5-Fluorouracil (2; inactive LdtR LOPAC)
NC(=O)c1ncn([C@@H]2O[C@H](CO)[C@@H](O)[C@H]2O)n1 [Ribavirin],activity annotation RpoH,RpoH; Biomol FDA,Ribavirin (2; inactive RpoH Biomol FDA)
